Data published in the NIST ThermoML archive (doi:10.1007/s10765-016-2064-y).

What was measured:
[1] = molar heat capacity at constant pressure; details: 101.33 kPa, Liquid, Large sample (1 g) DSC
[2] = 101.33 kPa, Liquid; for speed of sound: Pulse-echo method; for mass density: Pycnometric method

CCCCCCCCCCBr [1-bromodecane]
[1]
Details	molar heat capacity at constant pressure [J/K/mol]
298.15 K	334.38
303.15 K	336.85
308.15 K	339.35
313.15 K	341.85
318.15 K	344.35
323.15 K	346.85
328.15 K	349.35
333.15 K	351.85
338.15 K	354.33
343.15 K	356.83
348.15 K	359.33
353.15 K	361.82
358.15 K	364.32
363.15 K	366.82
368.15 K	369.32
373.15 K	371.8
378.15 K	374.3
383.15 K	376.8
388.15 K	379.3
393.15 K	381.8
398.15 K	384.3
403.15 K	386.8
408.15 K	389.27
413.15 K	391.77
418.15 K	394.27
423.15 K	396.77

CCCCCCCCCCCCBr [1-bromododecane]
[1]
Details	molar heat capacity at constant pressure [J/K/mol]
298.15 K	399.29
303.15 K	402.38
308.15 K	405.47
313.15 K	408.56
318.15 K	411.65
323.15 K	414.75
328.15 K	417.84
333.15 K	420.93
338.15 K	424.02
343.15 K	427.11
348.15 K	430.2
353.15 K	433.26
358.15 K	436.35
363.15 K	439.44
368.15 K	442.53
373.15 K	445.62
378.15 K	448.72
383.15 K	451.81
388.15 K	454.9
393.15 K	457.99
398.15 K	461.08
403.15 K	464.14
408.15 K	467.23
413.15 K	470.32
418.15 K	473.41
423.15 K	476.5

CCCCCCCBr [1-bromoheptane]
[1]
Details	molar heat capacity at constant pressure [J/K/mol]
298.15 K	249.39
303.15 K	251.24
308.15 K	253.07
313.15 K	254.91
318.15 K	256.75
323.15 K	258.58
328.15 K	260.43
333.15 K	262.27
338.15 K	264.1
343.15 K	265.94
348.15 K	267.77
353.15 K	269.61
358.15 K	271.46
363.15 K	273.29
368.15 K	275.13
373.15 K	276.98
378.15 K	278.8
383.15 K	280.65
388.15 K	282.47
393.15 K	284.32
398.15 K	286.16
403.15 K	287.99
408.15 K	289.83
413.15 K	291.68
418.15 K	293.51
423.15 K	295.35

CCCCCCBr [1-bromohexane]
[1]
Details	molar heat capacity at constant pressure [J/K/mol]
298.15 K	219.66
303.15 K	221.28
308.15 K	222.9
313.15 K	224.51
318.15 K	226.13
323.15 K	227.77
328.15 K	229.38
333.15 K	231
338.15 K	232.62
343.15 K	234.24
348.15 K	235.87
353.15 K	237.49
358.15 K	239.11
363.15 K	240.72
368.15 K	242.34
373.15 K	243.96
378.15 K	245.59
383.15 K	247.21
388.15 K	248.83
393.15 K	250.45
398.15 K	252.06
403.15 K	253.68
408.15 K	255.32
413.15 K	256.93
418.15 K	258.55
423.15 K	260.17

CCCCCCCCCBr [1-bromononane]
[1]
Details	molar heat capacity at constant pressure [J/K/mol]
298.15 K	308.3
303.15 K	310.56
308.15 K	312.82
313.15 K	315.1
318.15 K	317.36
323.15 K	319.61
328.15 K	321.87
333.15 K	324.15
338.15 K	326.41
343.15 K	328.67
348.15 K	330.92
353.15 K	333.2
358.15 K	335.46
363.15 K	337.72
368.15 K	339.98
373.15 K	342.26
378.15 K	344.51
383.15 K	346.77
388.15 K	349.03
393.15 K	351.31
398.15 K	353.57
403.15 K	355.82
408.15 K	358.08
413.15 K	360.36
418.15 K	362.62
423.15 K	364.88

CCCCCCCCBr [1-bromooctane]
[1]
Details	molar heat capacity at constant pressure [J/K/mol]
298.15 K	272.15
303.15 K	274.7
308.15 K	277.25
313.15 K	279.8
318.15 K	282.35
323.15 K	284.92
328.15 K	287.47
333.15 K	290.02
338.15 K	292.56
343.15 K	295.11
348.15 K	297.66
353.15 K	300.23
358.15 K	302.78
363.15 K	305.33
368.15 K	307.88
373.15 K	310.43
378.15 K	313
383.15 K	315.55
388.15 K	318.1
393.15 K	320.64
398.15 K	323.19
403.15 K	325.76
408.15 K	328.31
413.15 K	330.86
418.15 K	333.41
423.15 K	335.96

CCCCCCCCCCCBr [1-bromoundecane]
[1]
Details	molar heat capacity at constant pressure [J/K/mol]
298.15 K	373.22
303.15 K	375.72
308.15 K	378.21
313.15 K	380.7
318.15 K	383.19
323.15 K	385.69
328.15 K	388.18
333.15 K	390.67
338.15 K	393.17
343.15 K	395.66
348.15 K	398.15
353.15 K	400.62
358.15 K	403.12
363.15 K	405.61
368.15 K	408.1
373.15 K	410.6
378.15 K	413.09
383.15 K	415.58
388.15 K	418.08
393.15 K	420.57
398.15 K	423.06
403.15 K	425.56
408.15 K	428.02
413.15 K	430.52
418.15 K	433.01
423.15 K	435.5

CCCCCCCCCCCCCCBr [1-tetradecyl bromide]
Details	mass density, [2] [kg/m3]	molar heat capacity at constant pressure, [1] [J/K/mol]	speed of sound, [2] [m/s]
298.15 K	1012.2	450.84	1277.2
303.15 K	1008.1	454.08	1260.6
308.15 K	1003.9	457.3	1244.1
313.15 K	999.8	460.54	1227.9
318.15 K	995.7	463.79	1211.9
323.15 K	991.6	467.03	1196
328.15 K	987.4	470.27	1180.4
333.15 K	983.3	473.52	1164.9
338.15 K	979.1	476.73	1149.6
343.15 K	974.9	479.98	1134.5
348.15 K	970.8	483.22	1119.5
353.15 K	966.6	486.47	1104.6
358.15 K	962.4	489.71	1089.9
363.15 K	958.2	492.93	1075.3
368.15 K	954	496.17	1060.9
373.15 K	949.8	499.42	1046.5
378.15 K	945.6	502.66	1032.3
383.15 K	941.3	505.9	1018.2
388.15 K	937.1	509.15	1004.2
393.15 K	932.9	512.37	990.2
398.15 K	928.6	515.61	976.4
403.15 K	924.4	518.85	962.6
408.15 K	920.1	522.1	948.9
413.15 K	915.9	525.34	935.3
418.15 K	911.6	528.56	921.7
423.15 K	907.4	531.8	908.1
